According to US12552825B2 (Zikani Therapeutics, Inc., priority 2019, dated 2026):
Converted amounts (≈) assume the structure as drawn.

Columns and labels:
Format in all cases: cell-based
S. aureus MP-12 = assay: microbe, parasite or virus in culture; settings: Staphylococcus aureus, MP12, read-out: MIC S. aureus MP-12
E. coli MP-4 = assay: MIC determination by CLSI broth dilution, E. coli MP-4; settings: strain MP-4; for MIC: Escherichia coli, MP4, CLSI broth dilution; for MIC E. coli MP-4: CLSI broth dilution
K. pneumoniae MP-546 = assay: MIC determination by CLSI broth dilution, K. pneumoniae MP-546; settings: strain MP-546; for MIC: Klebsiella pneumoniae, MP546, CLSI broth dilution; for MIC K. pneumoniae MP-546: CLSI broth dilution
K. pneumoniae MP-648 = assay: MIC determination by CLSI broth dilution, K. pneumoniae MP-648; settings: strain MP-648; for MIC: Klebsiella pneumoniae, MP648, CLSI broth dilution; for MIC K. pneumoniae MP-648: CLSI broth dilution
P. aeruginosa MP-3 = assay: MIC determination by CLSI broth dilution, P. aeruginosa MP-3; settings: for MIC: Pseudomonas aeruginosa, MP3, strain MP-3; for MIC P aeruginosa MP-3: strain MP-3
A. baumannii MP-15 = assay: MIC determination by CLSI broth dilution, A. baumannii MP-15; settings: for MIC: Acinetobacter baumannii, MP15, strain MP-15, read-out: MIC A. baumanii MP-15; for MIC A. baumanii MP-15: strain MP-15

How did the MIC (S. aureus MP-12) turn out when `CCCN1CC(C[C@@H]2COC(=O)C(C)(C)C(=O)[C@H](C)[C@@H](O[C@@H]3O[C@H](C)C[C@H](N(C)C)[C@H]3O)[C@](C)(OC)C[C@@H](C)CN2C)C1` [Compound 1] was run?
The MIC was over 32 µg/mL.

And the MIC (E. coli MP-4)?
The MIC was under 4 µg/mL.

What about the MIC (K. pneumoniae MP-546) of the same compound?
Its MIC is 4 to 32 µg/mL (≈ 6.54 to 52.3 µM).

And the MIC (K. pneumoniae MP-648)?
Its MIC is over 32 µg/mL.

And the MIC (P. aeruginosa MP-3)?
The MIC was over 32 µg/mL.

And the MIC (A. baumannii MP-15)?
The MIC was over 32 µg/mL.

How did the MIC (S. aureus MP-12) turn out when `C=C(C[C@@H]1COC(=O)C(C)(C)C(=O)[C@H](C)[C@@H](O[C@@H]2O[C@H](C)C[C@H](N(C)C)[C@H]2O)[C@](C)(OC)C[C@@H](C)CN1C)CN(CCC)CCC` [Compound 2] was run?
The MIC was over 32 µg/mL.

What about the MIC (E. coli MP-4) of the same compound?
Its MIC is 4 to 32 µg/mL (≈ 6.12 to 48.9 µM).

What about the MIC (K. pneumoniae MP-546) of the same compound?
The MIC was over 32 µg/mL.

And the MIC (K. pneumoniae MP-648)?
Its MIC is over 32 µg/mL.

And the MIC (P. aeruginosa MP-3)?
Its MIC is over 32 µg/mL.

What about the MIC (A. baumannii MP-15) of the same compound?
Its MIC is over 32 µg/mL.

With `CCN(C)CC[C@@H](O)[C@@H]1COC(=O)C(C)(C)C(=O)[C@H](C)[C@@H](O[C@@H]2O[C@H](C)C[C@H](N(C)C)[C@H]2O)[C@](C)(OC)C[C@@H](C)CN1C` [Compound 3] as the compound, how does the MIC (S. aureus MP-12) read?
Its MIC is 4 to 32 µg/mL (≈ 6.5 to 52 µM).

And the MIC (E. coli MP-4)?
The MIC was under 4 µg/mL.

And the MIC (K. pneumoniae MP-546)?
The MIC was under 4 µg/mL.

And the MIC (K. pneumoniae MP-648)?
Its MIC is under 4 µg/mL.

And the MIC (P. aeruginosa MP-3)?
Its MIC is over 32 µg/mL.

And the MIC (A. baumannii MP-15)?
Its MIC is over 32 µg/mL.

What does the source list for `CO[C@]1(C)C[C@@H](C)CN(C)[C@@H](CCCO)COC(=O)C(C)(C)C(=O)[C@H](C)[C@H]1O[C@@H]1O[C@H](C)C[C@H](N(C)C)[C@H]1O` [Compound 4, (3S,6R,8R,9R,10R)-9-(((2S,3R,4S,6R)-4-(dimethylamino)-3-hydroxy-6-methyltetrahydro-2H-pyran-2-yl)oxy)-3-(3-hydroxypropyl)-8-methoxy-4,6,8,10,12,12-hexamethyl-1-oxa-4-azacyclotridecane-11,13-dione]?
MIC (S. aureus MP-12): > 32 µg/mL; MIC (E. coli MP-4): < 4 µg/mL; MIC (K. pneumoniae MP-546): 4 to 32 µg/mL (≈ 7.16 to 57.3 µM); MIC (K. pneumoniae MP-648): 4 to 32 µg/mL (≈ 7.16 to 57.3 µM); MIC (P. aeruginosa MP-3): > 32 µg/mL; MIC (A. baumannii MP-15): > 32 µg/mL

How did the MIC (S. aureus MP-12) turn out when `CO[C@]1(C)C[C@@H](C)CN(C)[C@@H](CCCN(C)C(C)(C)C)COC(=O)C(C)(C)C(=O)[C@H](C)[C@H]1O[C@@H]1O[C@H](C)C[C@H](N(C)C)[C@H]1O` [Compound 7, (3S,6R,8R,9R,10R)-3-(3-(tert-butyl(methyl)amino)propyl)-9-(((2S,3R,4S,6R)-4-(dimethylamino)-3-hydroxy-6-methyltetrahydro-2H-pyran-2-yl)oxy)-8-methoxy-4,6,8,10,12,12-hexamethyl-1-oxa-4-azacyclotridecane-11,13-dione] was run?
The MIC was 4 to 32 µg/mL (≈ 6.37 to 51 µM).

What about the MIC (E. coli MP-4) of the same compound?
Its MIC is under 4 µg/mL.

What about the MIC (K. pneumoniae MP-546) of the same compound?
The MIC was 4 to 32 µg/mL (≈ 6.37 to 51 µM).

And the MIC (K. pneumoniae MP-648)?
Its MIC is under 4 µg/mL.

What about the MIC (P. aeruginosa MP-3) of the same compound?
The MIC was over 32 µg/mL.

What about the MIC (A. baumannii MP-15) of the same compound?
The MIC was over 32 µg/mL.

How did the MIC (S. aureus MP-12) turn out when `CO[C@]1(C)C[C@@H](C)CN(CC(C)C)[C@@H](CCCN(C)C(C)C)COC(=O)C(C)(C)C(=O)[C@H](C)[C@H]1O[C@@H]1O[C@H](C)C[C@H](N(C)C)[C@H]1O` [Compound 8, (3S,6R,8R,9R,10R)-9-(((2S,3R,4S,6R)-4-(dimethylamino)-3-hydroxy-6-methyltetrahydro-2H-pyran-2-yl)oxy)-4-isobutyl-3-(3-(isopropyl(methyl)amino)propyl)-8-methoxy-6,8,10,12,12-pentamethyl-1-oxa-4-azacyclotridecane-11,13-dione] was run?
The MIC was under 4 µg/mL.

And the MIC (E. coli MP-4)?
Its MIC is under 4 µg/mL.

What about the MIC (K. pneumoniae MP-546) of the same compound?
Its MIC is 4 to 32 µg/mL (≈ 6.1 to 48.8 µM).

What about the MIC (K. pneumoniae MP-648) of the same compound?
Its MIC is 4 to 32 µg/mL (≈ 6.1 to 48.8 µM).

And the MIC (P. aeruginosa MP-3)?
The MIC was over 32 µg/mL.

And the MIC (A. baumannii MP-15)?
The MIC was over 32 µg/mL.

Which results are given for `CCN1C[C@H](C)C[C@@](C)(OC)[C@H](O[C@@H]2O[C@H](C)C[C@H](N(C)C)[C@H]2O)[C@@H](C)C(=O)C(C)(C)C(=O)OC[C@@H]1CCCN(C)C(C)C` [Compound 10, (3S,6R,8R,9R,10R)-9-(((2S,3R,4S,6R)-4-(dimethylamino)-3-hydroxy-6-methyltetrahydro-2H-pyran-2-yl)oxy)-4-ethyl-3-(3-(isopropyl(methyl)amino)propyl)-8-methoxy-6,8,10,12,12-pentamethyl-1-oxa-4-azacyclotridecane-11,13-dione]?
MIC (S. aureus MP-12): < 4 µg/mL; MIC (E. coli MP-4): < 4 µg/mL; MIC (K. pneumoniae MP-546): < 4 µg/mL; MIC (K. pneumoniae MP-648): < 4 µg/mL; MIC (P. aeruginosa MP-3): > 32 µg/mL; MIC (A. baumannii MP-15): > 32 µg/mL

Which MIC (S. aureus MP-12) does the source give for `CO[C@]1(C)C[C@@H](C)CN(C)[C@H](CCCN(C)C(C)C)COC(=O)C(C)(C)C(=O)[C@H](C)[C@H]1O[C@@H]1O[C@H](C)C[C@H](N(C)C)[C@H]1O` [Compound 12, (3R,6R,8R,9R,10R)-9-(((2S,3R,4S,6R)-4-(dimethylamino)-3-hydroxy-6-methyltetrahydro-2H-pyran-2-yl)oxy)-3-(3-(isopropyl(methyl)amino)propyl)-8-methoxy-4,6,8,10,12,12-hexamethyl-1-oxa-4-azacyclotridecane-11,13-dione] here?
The MIC was 4 to 32 µg/mL (≈ 6.52 to 52.1 µM).

And the MIC (E. coli MP-4)?
The MIC was under 4 µg/mL.

And the MIC (K. pneumoniae MP-546)?
Its MIC is under 4 µg/mL.

And the MIC (K. pneumoniae MP-648)?
Its MIC is under 4 µg/mL.

What about the MIC (P. aeruginosa MP-3) of the same compound?
The MIC was over 32 µg/mL.

And the MIC (A. baumannii MP-15)?
The MIC was over 32 µg/mL.

How did the “MIC E. coli MP-4” value (E. coli MP-4) turn out when `CO[C@]1(C)C[C@@H](C)CN(C)[C@H]([C@@H](O)C2CCN(CC3CC3)CC2)COC(=O)C(C)(C)C(=O)[C@H](C)[C@H]1O[C@@H]1O[C@H](C)C[C@H](N(C)C)[C@H]1O` [Compound 28] was run?
The value was “+ (values greater than 32 mg/L)”.

What about the “MIC K. pneumoniae MP-546” value (K. pneumoniae MP-546) of the same compound?
Its value is “+ (values greater than 32 mg/L)”.

And the “MIC K. pneumoniae MP-648” value (K. pneumoniae MP-648)?
Its value is “+ (values greater than 32 mg/L)”.

What about the “MIC P aeruginosa MP-3” value (P. aeruginosa MP-3) of the same compound?
The value was “+ (values greater than 32 mg/L)”.

And the “MIC A. baumanii MP-15” value (A. baumannii MP-15)?
The value was “+ (values greater than 32 mg/L)”.

With `CO[C@]1(C)C[C@@H](C)CN(C)[C@H](C[C@H]2C[C@H](N(C)CC(C)C)C2)COC(=O)C(C)(C)C(=O)[C@H](C)[C@H]1O[C@@H]1O[C@H](C)C[C@H](N(C)C)[C@H]1O` [Compound 134, (3R,6R,8R,9R,10R)-9-(((2S,3R,4S,6R)-4-(dimethylamino)-3-hydroxy-6-methyltetrahydro-2H-pyran-2-yl)oxy)-3-(((1r,3S)-3-(isobutyl(methyl)amino)cyclobutyl)methyl)-8-methoxy-4,6,8,10,12,12-hexamethyl-1-oxa-4-azacyclotridecane-11,13-dione] as the compound, how does the “MIC E. coli MP-4” value (E. coli MP-4) read?
The value was “+++ (values less than or equal to 4 mg/L)”.

And the “MIC K. pneumoniae MP-546” value (K. pneumoniae MP-546)?
Its value is “+++ (values less than or equal to 4 mg/L)”.

And the “MIC K. pneumoniae MP-648” value (K. pneumoniae MP-648)?
The value was “+++ (values less than or equal to 4 mg/L)”.

What about the “MIC P aeruginosa MP-3” value (P. aeruginosa MP-3) of the same compound?
Its value is “+ (values greater than 32 mg/L)”.

What about the “MIC A. baumanii MP-15” value (A. baumannii MP-15) of the same compound?
The value was “+ (values greater than 32 mg/L)”.

Which “MIC E. coli MP-4” value (E. coli MP-4) does the source give for `C=C(C)C[C@]1(C)C(=O)OC[C@@H](CC2CCN(CCCCCCC)CC2)N(C)C[C@H](C)C[C@@](C)(OC)[C@H](O[C@@H]2O[C@H](C)C[C@H](N(C)C)[C@H]2O)[C@@H](C)C1=O` [Compound 175] here?
The value was “+++ (values less than or equal to 4 mg/L)”.

And the “MIC K. pneumoniae MP-546” value (K. pneumoniae MP-546)?
Its value is “++ (values of greater than 4 mg/L and less than or equal to 32 mg/L)”.

What about the “MIC K. pneumoniae MP-648” value (K. pneumoniae MP-648) of the same compound?
Its value is “+ (values greater than 32 mg/L)”.

And the “MIC P aeruginosa MP-3” value (P. aeruginosa MP-3)?
Its value is “+ (values greater than 32 mg/L)”.

And the “MIC A. baumanii MP-15” value (A. baumannii MP-15)?
The value was “+ (values greater than 32 mg/L)”.

For `CO[C@]1(C)C[C@@H](C)CN(C)[C@H]([C@](C)(O)CCN(C)CCO)COC(=O)C(C)(C)C(=O)[C@H](C)[C@H]1O[C@@H]1O[C@H](C)C[C@H](N(C)C)[C@H]1O` [Compound 228], which MIC (S. aureus MP-12) is on record?
Its MIC is over 32 µg/mL.

And the MIC (E. coli MP-4)?
The MIC was 4 to 32 µg/mL (≈ 6.19 to 49.5 µM).

What about the MIC (K. pneumoniae MP-648) of the same compound?
Its MIC is under 4 µg/mL.

What about the MIC (P. aeruginosa MP-3) of the same compound?
Its MIC is over 32 µg/mL.

What about the MIC (A. baumannii MP-15) of the same compound?
The MIC was over 32 µg/mL.

Which MIC (S. aureus MP-12) does the source give for `CCCN(CCC)CC[C@@](C)(O)[C@@H]1COC(=O)C(C)(C)C(=O)[C@H](C)[C@@H](O[C@@H]2O[C@H](C)C[C@H](N(C)C)[C@H]2O)[C@](C)(OC)C[C@@H](C)CN1C` [Compound 229] here?
Its MIC is 4 to 32 µg/mL (≈ 5.95 to 47.6 µM).

And the MIC (E. coli MP-4)?
Its MIC is 4 to 32 µg/mL (≈ 5.95 to 47.6 µM).

And the MIC (K. pneumoniae MP-648)?
Its MIC is over 32 µg/mL.

And the MIC (P. aeruginosa MP-3)?
Its MIC is over 32 µg/mL.

And the MIC (A. baumannii MP-15)?
The MIC was over 32 µg/mL.
